Results published in US11465986B2, “Crystal form of c-MET inhibitor and salt form thereof and preparation method therefor” (FUJIAN AKEYLINK BIOTECHNOLOGY CO., LTD., priority 2018, dated 2022).
Several values for one entry are separate records, joined by “and”; a condition that tells them apart may be missing. Equal values may be shown once. Entries after “also recorded” stand apart in the source; their conditions may differ.

What was measured:
Format in all cases: physicochemical
[1] = Stability test of the crystal forms (HPLC impurity content); settings: for Stability, conclusion in words: stress conditions (high temperature, high humidity, light)
Protocol: The method for High Performance Liquid Chromatograph (HPLC) in the present disclosure
Instrument Model: Agilent 1200 High Performance Liquid Chromatograph
The analysis method is as follows: […]
About 10 mg of the crystal form B of the compound represented by formula (II) was weighted and placed under stability test conditions, and the samples were collected and analyzed after 5 days, 10 days, and 1 month.
About 10 mg of the crystal form C of the compound represented by formula (III) was weighted and placed under stability test conditions, and the samples were collected and analyzed after 5 days, 10 days, and 1 month respectively.

[2] = Solubility test in different solvents; settings: 25° C.±2° C.
Protocol: (§1) 10 mg of the crystal form A of the compound represented by formula (I) was placed into a glass bottle, 1 mL of solvent was added thereto and the bottle was shaken vigorously for 30 seconds every 5 minutes at 25° C.±2° C., the dissolution was observed over 30 minutes. The corresponding data were recorded in the table.
as §1, with “For insoluble samples, another 1” for “10”, “an appropriate” for “1 mL of”, “thereto,” for “thereto”, “Table 10.” for “the table.”

[3] = Hygroscopicity study (weight gain over saturated ammonium chloride solution, 25° C., 24 hours)
Protocol: The hygroscopicity was evaluated using the scales in the following Table 4:
3 dry glass weighing bottles with stopper (outer diameter of 50 mm, height of 30 mm) were placed in a desiccator having saturated ammonium chloride solution placed at the bottom, the weighing bottles were left open, and the desiccator was covered with lid, placed in a thermostat setting at 25° C. overnight.
The weighing bottles were took out and accurately weighed, the weight data were noted as m11, m12 and m13 respectively.
An appropriate amount of the crystal form A of the compound represented by formula (I), was spread in the weighed weighing bottles (the thickness of the sample was about 1 mm), and then accurately weighed, the weight data were noted as m21, m22 and m23, respectively.
The open weighing bottles and the bottle stoppers were placed in a desiccator having saturated ammonium chloride solution placed at the bottom, and the desiccator was covered with a lid, placed in a thermostat setting at 25° C. for 24 hours.
After standing for 24 hours, the weighing bottles were closed with the stoppers, then accurately weighed, and the weight data were noted as m31, m32 and m33.
Hygroscopicity weight gain was calculated, the calculation formula was as follows: Percentage gain=100%×(m3−m2)/(m2−m1)

[4] = Stability test of the crystal forms (HPLC impurity content); settings: form A, 5 days
[5] = form C, Light (total illuminance = 1.2 × 106 Lux · hr/near ultraviolet = 200 w · hr/m^2)
[6] = form A, 40° C. Relative humidity 75%, 1 month
[7] = form A, 40° C. Relative humidity 75%, 2 months
[8] = form A, 40° C. Relative humidity 75%, 10 days
[9] = form A, 60° C. Relative humidity 75%, 1 month
[10] = form A, 60° C. Relative humidity 75%, 2 months
[11] = form A, 60° C. Relative humidity 75%, 10 days
[12] = form A, Light (total illuminance = 1.2 × 106 Lux · hr/near ultraviolet = 200 w · hr/m^2)
[13] = form A, Relative humidity 92.5%, 5 days
[14] = form A, Relative humidity 92.5%, 10 days
[15] = form B, 40° C. relative humidity 75%, 1 month
[16] = form B, 40° C. relative humidity 75%, 10 days
[17] = form B, 60° C. relative humidity 75%, 1 month
[18] = form B, 60° C. relative humidity 75%, 10 days
[19] = form B, Light (total illuminance = 1.2 × 106 Lux · hr/near ultraviolet = 200 w · hr/m^2)
[20] = form B, Relative humidity 92.5%, 1 month
[21] = form B, Relative humidity 92.5%, 5 days
[22] = form B, Relative humidity 92.5%, 10 days

C[C@H](c1cccc(-c2ncc(OCC3CCN(C)CC3)cn2)c1)n1cc(-c2cc(C#N)ccn2)cc(F)c1=O [crystal form C of the compound represented by formula (III)]
Total impurities ([1]; form C, 0 day): 2.22%
Total impurities ([1]; form C, 40° C. Relative humidity 75%, 1 month): 2.31%
Total impurities ([1]; form C, 40° C. Relative humidity 75%, 10 days): 2.26%
Total impurities ([1]; form C, 60° C. Relative humidity 75%, 1 month): 12.75%
Total impurities ([1]; form C, 60° C. Relative humidity 75%, 10 days): 6.04%
Total impurities ([1]; form C, 60° C., 1 month): 2.35%
Total impurities ([1]; form C, 60° C., 5 days): 2.27%
Total impurities ([1]; form C, 60° C., 10 days): 2.35%
Impurity content, relative retention time 0.45 (column inferred) [1, 5]: 0.05%
Impurity content, relative retention time 0.7 (column inferred) [1, 5]: 0.12%
Impurity content, relative retention time 0.75 (column inferred) [1, 5]: 0.05%
Impurity content, relative retention time 0.87 or 0.94 (column inferred) [1, 5]: 0.24%
Total impurities [1, 5]: 2.94%
Total impurities ([1]; form C, Relative humidity 92.5%, 1 month): 2.28%
Total impurities ([1]; form C, Relative humidity 92.5%, 5 days): 2.29%
Total impurities ([1]; form C, Relative humidity 92.5%, 10 days): 2.22%
Stability, conclusion in words [1]: relatively stable under high temperature and high humidity conditions

C[C@H](c1cccc(-c2ncc(OCC3CCN(C)CC3)cn2)c1)n1cc(-c2cc(C#N)ccn2)cc(F)c1=O [crystal form A of the compound represented by formula (I)]
Solubility classification ([2]; 0.1N HCl): Soluble
Solubility classification ([2]; 0.1N NaOH): practically insoluble or insoluble; also recorded: Practically insoluble
Solubility classification ([2]; Acetonitrile): Very slightly soluble
Solubility classification ([2]; Diethylamine): practically insoluble or insoluble; also recorded: Practically insoluble
Solubility classification ([2]; Ethanol): very slightly soluble
Solubility classification ([2]; Ethyl acetate): Very slightly soluble
Solubility classification ([2]; N-Methylpyrrolidone): Very soluble
Solubility classification ([2]; Tetrahydrofuran): Sparingly soluble
Solubility classification ([2]; Trifluoroacetic acid): Sparingly soluble
Solubility classification ([2]; acetone): Slightly soluble
Solubility classification ([2]; n-Hexane): practically insoluble or insoluble; also recorded: Practically insoluble
Solubility classification ([2]; water): Very soluble
Impurity content, relative retention time 0.93 ([1]; form A, 0 day): 0.14%
Impurity content, relative retention time 1.07 ([1]; form A, 0 day): 0.52%
Total impurities ([1]; form A, 0 day): 0.67%
Impurity content, relative retention time 0.93 [1, 6]: 0.12%
Impurity content, relative retention time 1.07 [1, 6]: 0.45%
Total impurities [1, 6]: 0.63%
Impurity content, relative retention time 0.93 [1, 7]: 0.15%
Impurity content, relative retention time 1.07 [1, 7]: 0.52%
Total impurities [1, 7]: 0.66%
Impurity content, relative retention time 0.93 [1, 8]: 0.14%
Impurity content, relative retention time 1.07 [1, 8]: 0.5%
Total impurities [1, 8]: 0.58%
Impurity content, relative retention time 0.93 [1, 9]: 0.13%
Impurity content, relative retention time 1.07 [1, 9]: 0.49%
Total impurities [1, 9]: 0.62%
Impurity content, relative retention time 0.93 [1, 10]: 0.17%
Impurity content, relative retention time 1.07 [1, 10]: 0.59%
Total impurities [1, 10]: 0.75%
Impurity content, relative retention time 0.93 [1, 11]: 0.14%
Impurity content, relative retention time 1.07 [1, 11]: 0.53%
Total impurities [1, 11]: 0.67%
Impurity content, relative retention time 0.93 ([1]; form A, 60° C., 5 days): 0.12%
Impurity content, relative retention time 0.99 ([1]; form A, 60° C., 5 days): 0.13%
Impurity content, relative retention time 1.07 ([1]; form A, 60° C., 5 days): 0.47%
Impurity content, relative retention time 1.39 ([1]; form A, 60° C., 5 days): 0.17%
Impurity content, relative retention time 1.48 ([1]; form A, 60° C., 5 days): 0.1%
Impurity content, relative retention time 0.93 ([1]; form A, 60° C., 10 days): 0.12%
Impurity content, relative retention time 0.99 ([1]; form A, 60° C., 10 days): 0.19%
Impurity content, relative retention time 1.05 ([1]; form A, 60° C., 10 days): 0.14%
Impurity content, relative retention time 1.07 ([1]; form A, 60° C., 10 days): 0.45%
Impurity content, relative retention time 1.39 ([1]; form A, 60° C., 10 days): 0.41%
Impurity content, relative retention time 1.43 ([1]; form A, 60° C., 10 days): 0.11%
Impurity content, relative retention time 1.48 ([1]; form A, 60° C., 10 days): 0.23%
Total impurities ([1]; form A, 60° C., 10 days): 1.64%
Impurity content, relative retention time 0.93 [1, 12]: 0.11%
Impurity content, relative retention time 0.99 [1, 12]: 0.29%
Impurity content, relative retention time 1.05 [1, 12]: 0.8%
Impurity content, relative retention time 1.07 [1, 12]: 0.46%
Impurity content, relative retention time 1.39 [1, 12]: 3.98%
Impurity content, relative retention time 1.43 [1, 12]: 1.18%
Impurity content, relative retention time 1.48 [1, 12]: 1.62%
Total impurities [1, 12]: 13.45%
Impurity content, relative retention time 0.93 [1, 13]: 0.14%
Total impurities [1, 13]: 0.67%
Impurity content, relative retention time 0.93 [1, 14]: 0.14%
Impurity content, relative retention time 1.07 [1, 14]: 0.52%
Total impurities [1, 14]: 0.67%
Stability, conclusion in words [1]: good stability
Average value of percentage gain (average hygroscopicity) ([3]; 25° C., 24 hours over saturated ammonium chloride solution, mean of 3 samples): 0.060%
Percentage gain (hygroscopic weight gain), single samples ([3]; 25° C., 24 hours over saturated ammonium chloride solution, samples No. 1-3): 0.03% and 0.08% and 0.07%
Hygroscopicity scale ([3]; classified by the average weight gain): no or almost no hygroscopicity
Total impurities ([4]; 60° C.): 0.99%
Impurity content, relative retention time 1.07 ([4]; Relative humidity 92.5%): 0.53%

C[C@H](c1cccc(-c2ncc(OCC3CCN(C)CC3)cn2)c1)n1cc(-c2cc(C#N)ccn2)cc(F)c1=O.Cl
Impurity content, relative retention time 0.77 ([1]; form B, 0 day): 0.05%
Impurity content, relative retention time 1.04 ([1]; form B, 0 day): 2.18%
Total impurities ([1]; form B, 0 day): 2.24%
Impurity content, relative retention time 0.77 [1, 15]: 0.23%
Impurity content, relative retention time 1.04 [1, 15]: 1.95%
Total impurities [1, 15]: 2.18%
Impurity content, relative retention time 0.77 [1, 16]: 0.18%
Impurity content, relative retention time 1.04 [1, 16]: 2.02%
Total impurities [1, 16]: 2.2%
Impurity content, relative retention time 0.77 [1, 17]: 0.36%
Impurity content, relative retention time 1.04 [1, 17]: 1.76%
Total impurities [1, 17]: 2.12%
Impurity content, relative retention time 0.77 [1, 18]: 0.42%
Impurity content, relative retention time 1.04 [1, 18]: 1.72%
Total impurities [1, 18]: 2.13%
Impurity content, relative retention time 0.77 ([1]; form B, 60° C., 1 month): 0.05%
Impurity content, relative retention time 1.04 ([1]; form B, 60° C., 1 month): 2.27%
Impurity content, relative retention time 1.4 ([1]; form B, 60° C., 1 month): 0.28%
Impurity content, relative retention time 1.41 ([1]; form B, 60° C., 1 month): 0.07%
Impurity content, relative retention time 1.43 ([1]; form B, 60° C., 1 month): 0.06%
Impurity content, relative retention time 1.49 ([1]; form B, 60° C., 1 month): 0.05%
Total impurities ([1]; form B, 60° C., 1 month): 2.78%
Impurity content, relative retention time 0.77 ([1]; form B, 60° C., 5 days): 0.06%
Impurity content, relative retention time 1.04 ([1]; form B, 60° C., 5 days): 2.18%
Impurity content, relative retention time 1.4 ([1]; form B, 60° C., 5 days): 0.06%
Total impurities ([1]; form B, 60° C., 5 days): 2.3%
Impurity content, relative retention time 1.04 ([1]; form B, 60° C., 10 days): 2.16%
Impurity content, relative retention time 1.4 ([1]; form B, 60° C., 10 days): 0.12%
Total impurities ([1]; form B, 60° C., 10 days): 2.29%
Impurity content, relative retention time not resolvable (one of 1.4 to 1.49) [1, 19]: 0.17%
Total impurities [1, 19]: 2.39%
Impurity content, relative retention time 0.77 [1, 20]: 0.2%
Impurity content, relative retention time 1.04 [1, 20]: 2.03%
Total impurities [1, 20]: 2.23%
Impurity content, relative retention time 0.77 [1, 21]: 0.13%
Impurity content, relative retention time 1.04 [1, 21]: 2.08%
Total impurities [1, 21]: 2.21%
Impurity content, relative retention time 0.77 [1, 22]: 0.16%
Impurity content, relative retention time 1.04 [1, 22]: 2.04%
Total impurities [1, 22]: 2.2%
Stability, conclusion in words [1]: stable under high temperature and light conditions
